pKi: −log10 of the molar value.
What was measured:
Mus musculus [1] = species: Mus musculus; assay: Antinociceptive activity in mice was determined using Tail flick method.; assay type: functional
[2] = target: Delta-type opioid receptor (Homo sapiens, UniProt P41143); assay: Binding affinity for Opioid receptor delta 1 was determined
Mus musculus [3] = species: Mus musculus; assay: Antinociceptive activity in mice was determined using PBQ assay.; assay type: functional
[4] = target: Kappa-type opioid receptor (Homo sapiens, UniProt P41145); assay: Binding affinity for Opioid receptor kappa 1 was determined.
Kappa-type opioid receptor, sequence (P41145 whole entry): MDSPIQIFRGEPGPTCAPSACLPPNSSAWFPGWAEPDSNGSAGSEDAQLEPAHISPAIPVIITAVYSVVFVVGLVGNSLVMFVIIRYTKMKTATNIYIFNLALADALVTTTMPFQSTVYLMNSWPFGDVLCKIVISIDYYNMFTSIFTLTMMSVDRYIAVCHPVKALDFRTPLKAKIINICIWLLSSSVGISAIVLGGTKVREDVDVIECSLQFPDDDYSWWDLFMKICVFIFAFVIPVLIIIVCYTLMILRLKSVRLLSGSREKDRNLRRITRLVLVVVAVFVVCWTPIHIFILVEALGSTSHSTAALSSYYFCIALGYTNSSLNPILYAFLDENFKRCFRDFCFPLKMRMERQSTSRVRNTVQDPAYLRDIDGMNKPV

Mu-type opioid receptor = Mu-type opioid receptor (Homo sapiens, UniProt P35372); assay: Binding affinity for Opioid receptor mu 1
Mu-type opioid receptor, sequence (P35372 whole entry): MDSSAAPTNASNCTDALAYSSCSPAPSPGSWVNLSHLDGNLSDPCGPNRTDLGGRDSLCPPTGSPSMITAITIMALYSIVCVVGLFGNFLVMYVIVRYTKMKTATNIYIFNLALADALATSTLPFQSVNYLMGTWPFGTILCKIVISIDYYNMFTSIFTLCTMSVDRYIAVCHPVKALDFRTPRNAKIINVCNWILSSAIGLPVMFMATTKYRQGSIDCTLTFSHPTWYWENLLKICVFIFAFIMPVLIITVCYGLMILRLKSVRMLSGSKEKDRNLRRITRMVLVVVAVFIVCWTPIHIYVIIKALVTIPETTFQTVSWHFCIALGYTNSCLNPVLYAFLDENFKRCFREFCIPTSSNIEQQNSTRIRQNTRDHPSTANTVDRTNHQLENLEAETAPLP

Delta-type opioid receptor, sequence (P41143 whole entry): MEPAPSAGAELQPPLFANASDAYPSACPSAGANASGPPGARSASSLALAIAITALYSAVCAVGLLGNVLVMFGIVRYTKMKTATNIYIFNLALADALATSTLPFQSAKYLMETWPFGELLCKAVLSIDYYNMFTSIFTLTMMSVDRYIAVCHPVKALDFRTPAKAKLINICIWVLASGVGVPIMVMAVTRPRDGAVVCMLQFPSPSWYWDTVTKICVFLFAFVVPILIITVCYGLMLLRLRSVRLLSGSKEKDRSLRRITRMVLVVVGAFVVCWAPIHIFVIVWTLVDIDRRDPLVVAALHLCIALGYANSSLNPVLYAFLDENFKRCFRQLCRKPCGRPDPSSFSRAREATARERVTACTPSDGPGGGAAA

Structure (SMILES) | ED50 (Mus musculus [1]) | pKi [2] | ED50 (Mus musculus [3]) | pKi [4] | pKi (Mu-type opioid receptor)
CS[C@@H]1Cc2ccc(O)cc2C(C)(C)[C@@H]1N | 0.58 µmol/kg | 6.46 | 0.14 µmol/kg | 7.18 | 
CC1(C)c2cc(O)ccc2C[C@@H](S)[C@H]1N |  |  |  |  | 6.79
CO[C@@H]1Cc2ccc(O)cc2C(C)(C)[C@@H]1N | 16 µmol/kg | 5.28 | 1.1 µmol/kg | 6.74 | 8.74
CC1(C)c2cc(O)ccc2C[C@@H](O)[C@H]1N |  |  |  |  | 6.69
CC1(C)c2cc(O)ccc2C[C@@H](S(C)(=O)=O)[C@H]1N |  |  |  |  | 5.94
CC[C@H]1Cc2ccc(O)cc2C(C)(C)[C@@H]1N |  |  |  |  | 6.87
C[C@@]12CCCCS[C@@H](Cc3ccc(O)cc31)C2N (stereo partly specified) |  | 6.38 | 0.33 µmol/kg | 7.36 | 9.10
CC[C@@H]1Cc2ccc(O)cc2C(C)(C)[C@@H]1N | 10.4 µmol/kg | 5.35 | 4.8 µmol/kg | 6.46 | 7.68
C[S+]([O-])[C@@H]1Cc2ccc(O)cc2C(C)(C)[C@@H]1N (stereo in doubt; 18A) |  |  |  |  | 5.98
C[S+]([O-])[C@@H]1Cc2ccc(O)cc2C(C)(C)[C@@H]1N (stereo in doubt; 18B) |  |  |  |  | 5.70
CN1CC[C@]23c4c5ccc(O)c4O[C@H]2[C@@H](O)C=C[C@H]3[C@H]1C5 [MORPHINE] | 1.2 µmol/kg |  | 1.6 µmol/kg |  | 

Reference: ChEMBL document CHEMBL1134942, “Synthesis and structure--activity relationship of novel aminotetralin derivatives with high micro selective opioid affinity” (Bioorg Med Chem Lett, 2002)
